Patent US4812573A, “Pharmaceutically active compounds” (SmithKline & French Laboratories, Ltd., priority 1986, dated 1989)
Structures can show the parent of a compound that is named as a salt.

How the values were obtained:
TXA2 receptors = target: T1, TXA2 receptors (Homo sapiens, UniProt P21731); experiment: human platelet binding assay ([^125 I]PTA-OH receptor ligand); settings: 50% inhibition of specific [^125 I]PTA-OH binding
T1 construct: endogenous in cells; host or cells: human platelets
T1 sequence (P21731 1-343): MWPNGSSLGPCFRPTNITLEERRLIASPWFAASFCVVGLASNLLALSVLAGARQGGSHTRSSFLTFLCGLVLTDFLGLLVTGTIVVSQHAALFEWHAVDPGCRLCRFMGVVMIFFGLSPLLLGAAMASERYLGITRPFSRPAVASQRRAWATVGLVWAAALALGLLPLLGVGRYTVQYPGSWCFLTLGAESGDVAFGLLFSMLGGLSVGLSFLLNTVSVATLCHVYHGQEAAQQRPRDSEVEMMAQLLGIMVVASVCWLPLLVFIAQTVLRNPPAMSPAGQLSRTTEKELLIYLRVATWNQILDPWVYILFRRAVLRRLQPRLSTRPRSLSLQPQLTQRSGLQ
Excerpt: As indicated above, compounds of the formula (I) have biological activity that is indicative of an ability to antagonise TXA2 receptors. […] Exp. Ther., 1985, 235(3), 729-734 where [^125 I]PTA-OH was used as the receptor ligand. The IC50 values represent the concentration which produces a 50% inhibition of specific [^125 I]PTA-OH binding.

human washed platelets = experiment: human platelet aggregation assay (submaximal U46619 induced aggregation); assay type: cell-based
Excerpt: As indicated above, compounds of the formula (I) have biological activity that is indicative of an ability to antagonise TXA2 receptors.
(b) human platelet aggregation assay.
HUMAN PLATELET AGGREGATION ASSAY
The aggregation assay used human washed platelets and was based on that described by Born (Nature, 1962, vol. 194, 927-929). The assay determines a concentration of test compound which inhibits a submaximal U46619 induced aggregation by 50% (IC50). U46619 is the thromboxane A2 -agonist (9,11-dideoxy-11α,9α-epoxymethanoprostaglandin F2α).

IC50 (TXA2 receptors) | IC50 (human washed platelets) | Compound
134 µM | – | O=C(O)CCCCN1CCc2c(cccc2NS(=O)(=O)c2ccccc2)C1 [Example 10, 5-[(5-Phenylsulphonamido)-1,2,3,4-tetrahydroisoquinolin-2-yl]valeric acid hydrochloride]
232 µM | – | O=C(O)CCCN1CCc2cc(NS(=O)(=O)c3ccccc3)ccc2C1 [Example 11, 4-[6-Phenylsulphonamido-1,2,3,4-tetrahydroisoquinolin-2-yl]butyric acid]
40.7 µM | – | O=C(O)CCCCN1CCc2ccc(NS(=O)(=O)c3ccccc3)cc2C1 [Example 12, 5-[7-Phenylsulphonamido-1,2,3,4-tetrahydroisoquiolin-2-yl]valeric acid]
84 µM | – | O=C(O)CN1CCc2ccc(NS(=O)(=O)c3ccccc3)cc2C1 [Example 13, 2-[(7-Phenylsulphonamido)-1,2,3,4-tetrahydroisiquinolin-2-yl]-acetic acid hydrochloride]
98 µM | – | CCCCC(C(=O)O)N1CCc2ccc(NS(=O)(=O)c3ccccc3)cc2C1 (centres unmarked) [Example 14, 2-[(7-Phenylsulphonamido)-1,2,3,4-tetrahydroisoquinolin-2-yl]-caproic acid hydrochloride]
7.8 µM | – | O=C(O)CCCN1CCc2ccc(S(=O)(=O)Nc3ccc(Cl)cc3)cc2C1 [Example 15, 4-[7-(4-Chlorophenylsulphamoyl)-1,2,3,4-tetrahydroisoquinolin-2-yl]butyric acid]

More lines, now with the values behind:

Compound | IC50 (TXA2 receptors) | IC50 (human washed platelets)
O=C(O)CCN1CCc2ccc(S(=O)(=O)Nc3cccc(Cl)c3)cc2C1 [Example 1, 3-[7-(3-Chlorophenylsulphamoyl)-1,2,3,4-tetrahydroisoquinolin-2-yl]propionic acid] | 49.3 µM | 103 µM
O=C(O)CCCN1CCc2ccc(S(=O)(=O)Nc3cccc(Cl)c3)cc2C1 [Example 2, 4-[7-(3-Chlorophenylsulphamoyl)-1,2,3,4-tetrahydroisoquinolin-2-yl]butyric acid] | 1.02 µM | 9.3 µM
CCOC(=O)CCCCN1CCc2ccc(S(=O)(=O)Nc3cccc(Cl)c3)cc2C1 [Example 3a, ethyl-5-[7-(3-chlorophenylsulphamoyl)-1,2,3,4-tetrahydroisoquinolin-2-yl]valerate hydrochloride] | 3.1 µM | –
O=C(O)CCCCN1CCc2ccc(S(=O)(=O)Nc3cccc(Cl)c3)cc2C1 [Example 3b, 5-[7-(3-Chlorophenylsulphamoyl)-1,2,3,4-tetrahydroisoquinolin-2-yl]valeric acid] | 1.06 µM | 3.9 µM
O=C(O)CCCCCN1CCc2ccc(S(=O)(=O)Nc3cccc(Cl)c3)cc2C1 [Example 4, 6-[7-(3-Chlorophenylsulphamoyl)-1,2,3,4-tetrahydroisoquinolin-2-yl]hexanoicacid] | 3.8 µM | 34 µM
O=C(O)CCCN1CCc2ccc(S(=O)(=O)Nc3ccccc3)cc2C1 [Example 5, 4-(7-Phenylsulphamoyl-1,2,3,4-tetrahydroisoquinolin-2-yl)butyric acid] | 3.75 µM | –
O=C(O)CCCCN1CCc2ccc(S(=O)(=O)Nc3ccccc3)cc2C1 [Example 6, 5-(7-Phenylsulphamoyl-1,2,3,4-tetrahydroisoquinolin-2-yl)valeric acid] | 9.2 µM | –
O=C(O)CCCN1CCc2ccc(S(=O)(=O)Nc3cccc(C(F)(F)F)c3)cc2C1 [Example 7, 4-[7-(3-Trifluoromethylphenylsulphamoyl)-1,2,3,4-tetrahydroisoquinolin-2-yl]butyric acid] | 2.8 µM | –
O=C(O)C#CCN1CCc2ccc(S(=O)(=O)Nc3cccc(Cl)c3)cc2C1 [Example 8, Sodium 4-[7-(3-chlorophenylsulphamoyl)-1,2,3,4-tetrahydroisoquinolin-2-yl]but-2-ynoate] | 0.7 µM | –
O=C(O)CCCN1CCc2c(cccc2NS(=O)(=O)c2ccccc2)C1 [Example 9, 4-[5-(Phenylsulphonamido)-1,2,3,4-tetrahydroisoquinolin-2-yl]butyric acid hydrochloride] | 79 µM | –
